Source: ChEMBL document CHEMBL5518159, “Thiazole-based analogues as potential antibacterial agents against methicillin-resistant Staphylococcus aureus (MRSA) and their SAR elucidation” (Eur J Med Chem, 2023)
≈ marks a conversion by molar mass, not a printed value. Each block holds one molecule with its values, some of them ahead of it.

Key:
[1] = tested on: Staphylococcus aureus; assay: Antimicrobial activity against Methicillin-resistant Staphylococcus aureus ATCC 33591 assessed as bacterial growth inhibition measured after 18 hrs by CLSI based Muller Hinton broth microdilution method; assay type: functional
[2] = tested on: Staphylococcus aureus; assay: Antimicrobial activity against Methicillin-resistant Staphylococcus aureus ATCC BAA41 assessed as bacterial growth inhibition measured after 18 hrs by CLSI based Muller Hinton broth microdilution method; assay type: functional
[3] = tested on: Staphylococcus aureus; assay: Antimicrobial activity against Methicillin-resistant Staphylococcus aureus ATCC 43300 assessed as bacterial growth inhibition measured after 18 hrs by CLSI based Muller Hinton broth microdilution method; assay type: functional
[4] = tested on: Escherichia coli; assay: Antibacterial activity against Escherichia coli ATCC 35210 assessed as reduction in bacterial growth measured for 24 hrs by broth micro-dilution method; assay type: functional
[5] = tested on: Staphylococcus aureus; assay: Antibacterial activity against Methicillin-resistant Staphylococcus aureus […] assessed as reduction in microbial growth; assay type: functional
[6] = tested on: Escherichia coli; assay: Antibacterial activity against Escherichia coli ATCC 25922 assessed as reduction in bacterial growth by broth microdilution method; assay type: functional
[7] = tested on: Staphylococcus aureus; assay: Antibacterial activity against methicillin-resistant Staphylococcus aureus ATCC 33592 assessed as reduction in bacterial growth; assay type: functional
[8] = tested on: Staphylococcus aureus; assay: Antimicrobial activity against methicillin-resistant Staphylococcus aureus assessed as inhibition of microbial growth incubated for 16 hrs by microdilution method; assay type: functional, organism-based
[9] = tested on: Staphylococcus aureus; assay: Antibacterial activity against Methicillin-resistant Staphylococcus aureus AUMC 261 assessed as bacterial growth inhibition incubated for 24 hrs by broth microdilution analysis; assay type: functional
[10] = tested on: Staphylococcus aureus; assay: Antimicrobial activity against Methicillin-resistant Staphylococcus aureus ATCC 43300 assessed as bacterial growth inhibition incubated for 18 hrs by broth micro-dilution method; assay type: functional
[11] = tested on: Staphylococcus aureus; assay: Antibacterial activity against Staphylococcus aureus assessed as reduction in bacterial growth by CLSI based two-fold microdilution method; assay type: functional
[12] = tested on: Staphylococcus aureus; assay: Antibacterial activity against […] Staphylococcus aureus ATCC 29213 assessed as reduction in bacterial growth incubated for 16 to 20 hrs by CLSI based two-fold serial dilution method; assay type: functional; details: time 16-20 hrs
[13] = tested on: Staphylococcus aureus; assay: Antibacterial activity against Methicillin-resistant Staphylococcus aureus ATCC 43300 clinical isolate assessed as reduction in microbial growth incubated for 16 to 20 hrs by CLSI based two-fold serial dilution method; assay type: functional; details: time 16-20 hrs
[14] = tested on: Staphylococcus aureus; assay: Antibacterial activity against […] Staphylococcus aureus ATCC 6538 assessed as microbial growth inhibition incubated for 24 hrs by broth micro-dilution analysis; assay type: functional
[15] = tested on: Staphylococcus aureus; assay: Antibacterial activity against […] Staphylococcus aureus ATCC 6538 assessed as bacterial growth inhibition incubated for 24 hrs by broth micro-dilution method; assay type: functional
[16] = tested on: Staphylococcus aureus; assay: Antimicrobial activity against […] Staphylococcus aureus ATCC 29213 assessed as reduction in bacterial viability incubated for 18 hrs by CLSI protocol based Muller Hinton broth based dilution assay; assay type: functional
[17] = tested on: Enterococcus faecium; assay: Antimicrobial activity against Vancomycin-resistant Enterococcus faecium assessed as reduction in bacterial viability incubated for 18 hrs by CLSI protocol based Muller Hinton broth based dilution assay; assay type: functional
[18] = tested on: Staphylococcus aureus; assay: Antibacterial activity against Methicillin-resistant Staphylococcus aureus ATCC 43300 assessed as reduction in bacterial growth measured for 24 hrs by CLSI based broth microdilution method; assay type: functional
[19] = tested on: Staphylococcus aureus; assay: Antibacterial activity against methicillin-resistant Staphylococcus aureus assessed as inhibition of bacterial growth measured after 24 hrs by broth micro-dilution method; assay type: functional
[20] = tested on: Staphylococcus aureus; assay: Antibacterial activity against Methicillin-sensitive Staphylococcus aureus ATCC 43300 assessed as reduction in microbial growth by CLSI based broth microdilution method; assay type: functional
[21] = tested on: Staphylococcus aureus; assay: Antibacterial activity against […] Staphylococcus aureus ATCC 6538 assessed as reduction in bacterial growth incubated for 24 hrs by broth micro-dilution method; assay type: functional
[22] = tested on: Staphylococcus aureus; assay: Antibacterial activity against […] Staphylococcus aureus ATCC 6538 assessed as reduction in bacterial growth incubated for 18 hrs by CLSI based broth-dilution method; assay type: functional
[23] = tested on: Staphylococcus aureus; assay: Antibacterial activity against Methicillin-sensitive Staphylococcus aureus ATCC 25923 assessed as reduction in microbial growth by CLSI based broth microdilution method; assay type: functional
[24] = tested on: Staphylococcus aureus; assay: Antibacterial activity against Methicillin-sensitive Staphylococcus aureus ATCC 25923 assessed as reduction in bacterial growth incubated for 24 hrs by CLSI based broth microdilution method; assay type: functional
[25] = tested on: Escherichia coli; assay: Antibacterial activity against Escherichia coli ATCC 35210 assessed as reduction in bacterial growth by broth microdilution method; assay type: functional
[26] = tested on: Staphylococcus aureus; assay: Antibacterial activity against Methicillin-sensitive Staphylococcus aureus ATCC 6538 assessed as reduction in microbial growth; assay type: functional
[27] = tested on: Pseudomonas aeruginosa; assay: Antibacterial activity against Pseudomonas aeruginosa assessed as reduction in bacterial growth by broth microdilution method; assay type: functional
[28] = tested on: Staphylococcus aureus; assay: Antibacterial activity against Staphylococcus aureus ATCC 49444 assessed as reduction in microbial growth; assay type: functional
[29] = tested on: Staphylococcus aureus; assay: Antibacterial activity against methicillin-resistant Staphylococcus aureus assessed as reduction in microbial growth measured for 24 hrs by CLSI based broth microdilution method; assay type: functional
[30] = tested on: Staphylococcus aureus; assay: Antibacterial activity against Staphylococcus aureus ATCC 43300 assessed as microbial inhibition incubated for 24 hrs by broth micro-dilution method; assay type: functional
[31] = target: T1, DNA gyrase (Staphylococcus aureus, UniProt P0A0K8+P20831); assay: Inhibition of Staphylococcus aureus DNA gyrase incubated for 30 mins by fluorescence based analysis; assay type: protein-complex assay
[32] = tested on: Staphylococcus aureus; assay: Antibacterial activity against […] Staphylococcus aureus ATCC 25923 assessed as reduction in bacterial growth incubated for 24 hrs by micro-broth dilution method; assay type: functional
[33] = target: DNA gyrase (Escherichia coli, UniProt P0AES4+P0AES6); assay: Inhibition of Escherichia coli DNA gyrase assessed as reduction in enzyme-mediated supercoiling of relaxed plasmid by fluorescence polarization assay; assay type: protein-complex assay
[34] = target: T1, DNA gyrase; assay: Inhibition of Staphylococcus aureus DNA gyrase; assay type: protein-complex assay
[35] = tested on: Staphylococcus aureus; assay: Antibacterial activity against methicillin-resistant Staphylococcus aureus assessed as reduction in microbial growth by CLSI based broth microdilution method; assay type: functional

SMILES: CN1/C(=C/c2cc(/C=C/c3cccnc3)[n+](C)c3ccccc23)Sc2ccccc21.[I-]
MIC [1]: 1.5 µg/mL
MIC [2]: 1.5 µg/mL
MIC [3]: 1.5 µg/mL

SMILES: Cc1[nH]c2ccc(Cl)cc2c1-c1csc(N)n1
MIC [4]: 60 µg/mL (≈ 227 µM)
MIC [5]: 230 µg/mL
MIC [6]: 60 µg/mL (≈ 227 µM)
MIC [7]: 100 µg/mL (≈ 379 µM)

SMILES: CO/N=C(/COc1ccc2c(C)cc(=O)oc2c1)c1nccs1
IC50 [8]: 1 µg/mL

SMILES: O=C(O)c1cn(C2CC2)c2cc(N3CCNCC3)c(F)cc2c1=O [CIPROFLOXACIN]
MIC [9]: 0.2 µg/mL (≈ 0.604 µM)
MIC [10]: 32 µg/mL (≈ 96.6 µM)

MIC [11]: 3.12 µg/mL (≈ 8.49 µM)
SMILES: C=C(C)[C@@H]1CC=C2c3sc(-c4cc(O)cc(O)c4)nc3C[C@@H](C)[C@]2(C)C1

SMILES: CCCCCNc1ccc(S(=O)(=O)CC(=O)c2nccs2)cc1
MIC [12]: 1 µg/mL (≈ 2.84 µM)

SMILES: Cc1cc(/C=C2\Sc3ccccc3N2CCCN2CCC(C)CC2)c2ccccc2[n+]1C.[I-]
MIC [13]: 2 µg/mL

SMILES: CCCC(C(=O)O)N1C(=O)/C(=C/c2c[nH]c3ccccc23)SC1=S (centres undefined)
MIC [14]: 250 µg/mL (≈ 694 µM)

SMILES: O=C1CSC(c2ccc([N+](=O)[O-])cc2)N1c1nc2c(Cl)cccc2s1 (centres undefined)
MIC [15]: 90 µg/mL (≈ 230 µM)

SMILES: CCCN(CCC)CCCN1/C(=C/c2c3ccccc3[n+](C)c3c2oc2ccccc23)Sc2ccccc21.[I-]
MIC [16]: 0.25 µg/mL
MIC [17]: 0.25 µg/mL

SMILES: CN[C@H](CC(C)C)C(=O)N[C@H]1C(=O)N[C@@H](CC(N)=O)C(=O)N[C@H]2C(=O)N[C@H]3C(=O)N[C@H](C(=O)N[C@H](C(=O)O)c4cc(O)cc(O)c4-c4cc3ccc4O)[C@H](O)c3ccc(c(Cl)c3)Oc3cc2cc(c3O[C@@H]2O[C@H](CO)[C@@H](O)[C@H](O)[C@H]2O[C@H]2C[C@](C)(N)[C@H](O)[C@H](C)O2)Oc2ccc(cc2Cl)[C@H]1O [VANCOMYCIN]
MIC50 [18]: 4 µg/mL (≈ 2.76 µM)
MIC [19]: 1.95 µg/mL (≈ 1.35 µM)
MIC90 [20]: 16 µg/mL

SMILES: O=C1CSC(c2ccc([N+](=O)[O-])cc2)N1c1nc2ccc(Cl)cc2s1 (centres undefined)
MIC [21]: 100 µg/mL (≈ 255 µM)

SMILES: O=C(O)c1cccc(N2C(=O)/C(=C/c3c[nH]c4ccccc34)SC2=S)c1
MIC [22]: 12 µg/mL (≈ 31.5 µM)

SMILES: CC(=O)c1sc(-c2cccnc2)nc1C
MIC50 [18]: 4 µg/mL (≈ 18.3 µM)
MIC90 [23]: 4 µg/mL
MIC50 [24]: 2 µg/mL (≈ 9.16 µM)

SMILES: COc1cc(CCN)c(-c2csc(-c3ccc(O)cc3)n2)cc1OC
MIC [25]: < 230 µg/mL
MIC [26]: 700 µg/mL
MIC [27]: < 230 µg/mL

SMILES: O=c1c2ccccc2nc(C(c2nccs2)c2nccs2)n1-c1ccc(F)cc1
MIC [28]: 32 µg/mL

SMILES: NC(=S)N/N=C/C1=CC(c2ccc([N+](=O)[O-])cc2[N+](=O)[O-])C=C1c1ccc(Cl)cc1Cl (centres undefined)
MBC [29]: 38 µg/mL

SMILES: CCCCCCNc1ccc(S(=O)(=O)CC(=O)c2nccs2)cc1
MIC [12]: 1 µg/mL (≈ 2.73 µM)

SMILES: N#C/C(C(=O)NCc1ccco1)=C1/SC(Cc2ccc(Cl)cc2)C(=O)N1c1ccccc1 (centres undefined)
MIC [10]: 4 µg/mL (≈ 8.62 µM)

MIC [30]: 1.25 µg/mL (≈ 2.19 µM)
IC50 [31]: 10.4 µM
SMILES: O=S(=O)(c1ccc2nc3s/c(=N/N=C\c4cccs4)n(-c4ccc(Cl)cc4)c3nc2c1)N1CCOCC1

SMILES: COC(=O)CC(=O)Nc1nc2c(s1)C[C@@H](NC(=O)c1[nH]c(C)c(Br)c1Cl)CC2
MIC [32]: 8 µg/mL (≈ 16.3 µM)
IC50 [33]: 0.056 µM
IC50 [34]: 3.7 µM

SMILES: O=C(/C(=C/c1ccccc1Cl)n1cnc2cc(Cl)ccc2c1=O)c1nccs1
MIC [35]: 2 µg/mL

SMILES: CCOc1ccc2nc(N3C(=O)CSC3c3ccc(OC)cc3)sc2c1 (centres undefined)
MIC [15]: 90 µg/mL (≈ 233 µM)
